Laboratory results as given in patent publication US5459049A, “Motilin-like polypeptide and use thereof” (priority 1989, dated 1995).

Biological target: upper small intestine of rabbit (Oryctolagus cuniculus, UniProt G1T803)
Details: from ED50, contraction activity of native motilin taken as 100%
Experimental: An intestinal contraction activity was measured by Magnus method using upper small intestine of rabbit ["J. Pharm. Pharmac.", Vol. 28, pages 650-651 (1976)], on each motilin-like polypeptides (Example 1, wherein R1 is Hse, Asp-Gly-Ile-Phe-Hse, or Arg-Ile-Phe-Hse) according to the invention, as test samples and a conventional pure [Leu^13 ]-motilin, as control sample. The activities of the test samples and control sample were compared, under assumption of that an contraction activity caused by 10^-6 M acetylcholine is 100%.

Chain of upper small intestine of rabbit (G1T803 1-400): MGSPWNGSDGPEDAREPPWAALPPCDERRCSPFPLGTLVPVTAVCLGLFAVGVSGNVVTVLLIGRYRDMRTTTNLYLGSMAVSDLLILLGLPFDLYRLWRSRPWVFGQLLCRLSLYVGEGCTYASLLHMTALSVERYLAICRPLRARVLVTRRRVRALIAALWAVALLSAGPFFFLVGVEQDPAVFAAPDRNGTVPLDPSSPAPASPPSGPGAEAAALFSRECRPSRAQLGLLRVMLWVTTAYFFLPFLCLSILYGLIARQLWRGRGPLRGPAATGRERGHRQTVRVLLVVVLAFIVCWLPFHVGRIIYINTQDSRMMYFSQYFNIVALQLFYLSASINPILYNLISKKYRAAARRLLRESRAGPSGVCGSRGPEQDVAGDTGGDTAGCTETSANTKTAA

## CC[C@H](C)[C@H](NC(=O)[C@@H]1CCCN1C(=O)[C@@H](NC(=O)[C@@H](N)Cc1ccccc1)C(C)C)C(=O)N[C@@H](Cc1ccccc1)C(=O)N[C@H](C(=O)N[C@@H](Cc1ccc(O)cc1)C(=O)NCC(=O)N[C@@H](CCC(=O)O)C(=O)N[C@@H](CC(C)C)C(=O)N[C@@H](CCC(N)=O)C(=O)N[C@@H](CCCNC(=N)N)C(=O)N[C@@H](CCSC)C(=O)N[C@@H](CCC(N)=O)C(=O)N[C@@H](CCC(=O)O)C(=O)N[C@@H](CCCCN)C(=O)N[C@@H](CCC(=O)O)C(=O)N[C@@H](CCCNC(=N)N)C(=O)N[C@@H](CC(N)=O)C(=O)N[C@@H](CCCCN)C(=O)NCC(=O)N[C@@H](CCC(N)=O)C(=O)O)[C@@H](C)O [native motilin]
  Activity in vitro (%): 100%
